Assay results from patent US20210317134A1, “UBIQUITIN-SPECIFIC-PROCESSING PROTEASE 7 (USP7) MODULATORS AND USES THEREOF” (RAPT THERAPEUTICS, INC., priority 2019, published 2021).
pIC50: −log10 of the molar value.

target: USP7 (Homo sapiens, UniProt Q93009); test: USP7 inhibitory potency (Table 1); type: biochemical
Sequence (Q93009 whole entry): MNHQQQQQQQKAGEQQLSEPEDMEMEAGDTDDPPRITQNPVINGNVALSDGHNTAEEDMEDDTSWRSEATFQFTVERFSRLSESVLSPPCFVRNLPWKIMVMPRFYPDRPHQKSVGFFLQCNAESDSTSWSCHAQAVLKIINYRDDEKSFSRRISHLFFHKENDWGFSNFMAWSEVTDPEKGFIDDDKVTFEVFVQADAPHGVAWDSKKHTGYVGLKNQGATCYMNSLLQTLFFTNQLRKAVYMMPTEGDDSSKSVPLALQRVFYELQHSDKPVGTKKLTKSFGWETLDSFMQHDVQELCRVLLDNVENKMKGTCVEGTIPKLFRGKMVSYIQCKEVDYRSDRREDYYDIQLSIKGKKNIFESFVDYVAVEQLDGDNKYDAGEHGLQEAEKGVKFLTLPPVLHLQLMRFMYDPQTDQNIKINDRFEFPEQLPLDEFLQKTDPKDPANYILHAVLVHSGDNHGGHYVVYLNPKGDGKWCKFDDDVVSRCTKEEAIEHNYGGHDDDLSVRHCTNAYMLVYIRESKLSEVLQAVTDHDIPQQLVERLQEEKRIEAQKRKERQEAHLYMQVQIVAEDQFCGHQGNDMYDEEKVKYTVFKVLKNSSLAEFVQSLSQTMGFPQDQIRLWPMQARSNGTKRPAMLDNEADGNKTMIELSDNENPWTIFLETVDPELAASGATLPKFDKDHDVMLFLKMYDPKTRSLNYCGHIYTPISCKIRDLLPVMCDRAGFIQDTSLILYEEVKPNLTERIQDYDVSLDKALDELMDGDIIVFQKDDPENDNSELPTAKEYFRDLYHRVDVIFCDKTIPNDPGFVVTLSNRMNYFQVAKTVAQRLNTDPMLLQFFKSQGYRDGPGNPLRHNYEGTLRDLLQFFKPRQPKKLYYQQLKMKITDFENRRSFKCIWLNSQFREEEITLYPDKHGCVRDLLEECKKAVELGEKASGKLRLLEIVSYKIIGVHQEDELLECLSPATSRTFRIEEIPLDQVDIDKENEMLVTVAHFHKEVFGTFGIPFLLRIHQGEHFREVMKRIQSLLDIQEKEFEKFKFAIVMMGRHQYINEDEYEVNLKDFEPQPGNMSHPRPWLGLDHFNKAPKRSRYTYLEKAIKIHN

Compound | pIC50
O=C(C1Cc2cc(Cl)cc(-c3ccnc4[nH]ccc34)c2O1)N1CCC(O)(Cc2ccccc2)CC1 (centres unmarked) [(4-benzyl-4-hydroxypiperidin-1-yl)(5-chloro-7-(1H-pyrrolo[2,3-b]pyridin-4-yl)-2,3-dihydrobenzofuran-2-yl)methanone] | 5.00 to 6.00
O=C(C1Cc2cc(Cl)cc(-c3ccnc4c3CCCC4)c2O1)N1CCNCC1 (centres unmarked) [(5-chloro-7-(5,6,7,8-tetrahydroquinolin-4-yl)-2,3-dihydrobenzofuran-2-yl)(piperazin-1-yl)methanone] | > 6.00
CN(C)S(=O)(=O)CCc1cc2nccc(-c3cc(Cl)cc4c3O[C@@H](C(=O)N3CCNCC3)C4)c2s1 [(R)-2-(7-(5-chloro-2-(piperazine-1-carbonyl)-2,3-dihydrobenzofuran-7-yl)thieno[3,2-b]pyridin-2-yl)-N,N-dimethylethane-1-sulfonamide] | > 6.00
C[C@H]1C[C@H](NC(=O)C2Cc3cc(Cl)cc(-c4ccnc5[nH]ccc45)c3O2)CCN1 (stereo partly drawn) [5-chloro-N-((2S,4R)-2-methylpiperidin-4-yl)-7-(1H-pyrrolo[2,3-b]pyridin-4-yl)-2,3-dihydrobenzofuran-2-carboxamide] | 5.00 to 6.00
CCC(O)c1cc2nccc(-c3cc(Cl)cc4c3O[C@@H](c3onc5c3CN(CC)CC5)C4)c2s1 (stereo partly drawn) [1-(7-((R)-5-chloro-2-(5-ethyl-4,5,6,7-tetrahydroisoxazolo[4,3-c]pyridin-3-yl)-2,3-dihydrobenzofuran-7-yl)thieno[3,2-b]pyridin-2-yl)propan-1-ol] | > 6.00
CC1CC(=O)N(Cc2cc3nccc(-c4cc(Cl)cc5c4O[C@@H](C(=O)N4CCNCC4)C5)c3s2)C1 (stereo partly drawn) [1-((7-((R)-5-chloro-2-(piperazine-1-carbonyl)-2,3-dihydrobenzofuran-7-yl)thieno[3,2-b]pyridin-2-yl)methyl)-4-methylpyrrolidin-2-one] | > 6.00
C=CCC1(C(=O)N2CCNCC2)Cc2cc(Cl)cc(-c3ccnc4[nH]ccc34)c2O1 (centres unmarked) [(2-allyl-5-chloro-7-(1H-pyrrolo[2,3-b]pyridin-4-yl)-2,3-dihydrobenzofuran-2-yl)(piperazin-1-yl)methanone] | 4.52 to 5.00
CN(C)C1CCc2nn(C)c([C@H]3Cc4cc(Cl)cc(-c5ccnc6cc(CO)sc56)c4O3)c2C1 (stereo partly drawn) [(7-((2R)-5-chloro-2-(5-(dimethylamino)-2-methyl-4,5,6,7-tetrahydro-2H-indazol-3-yl)-2,3-dihydrobenzofuran-7-yl)thieno[3,2-b]pyridin-2-yl)methanol] | > 6.00
NC(=O)c1c[nH]c2nccc(-c3cc(Cl)cc4c3OC(C(=O)N3CCNCC3)C4)c12 (centres unmarked) [4-(5-chloro-2-(piperazine-1-carbonyl)-2,3-dihydrobenzofuran-7-yl)-1H-pyrrolo[2,3-b]pyridine-3-carboxamide] | 5.00 to 6.00
O=C([C@H]1Cc2cc(Cl)cc(-c3ccnc4cc(CN5C(=O)COC5=O)sc34)c2O1)N1CCNCC1 [(R)-3-((7-(5-chloro-2-(piperazine-1-carbonyl)-2,3-dihydrobenzofuran-7-yl)thieno[3,2-b]pyridin-2-yl)methyl)oxazolidine-2,4-dione] | > 6.00
O=C1CCCN1Cc1cc2nccc(-c3cc(Cl)cc4c3O[C@@H](C(=O)N3CCNCC3)C4)c2s1 [(R)-1-((7-(5-chloro-2-(piperazine-1-carbonyl)-2,3-dihydrobenzofuran-7-yl)thieno[3,2-b]pyridin-2-yl)methyl)pyrrolidin-2-one] | > 6.00
Clc1cc2c(c(-c3ccnc4c3CC3(COCOC3)C4)c1)O[C@@H](c1onc3c1CNCC3)C2 [(R)-4-(5-chloro-2-(4,5,6,7-tetrahydroisoxazolo[4,3-c]pyridin-3-yl)-2,3-dihydrobenzofuran-7-yl)-5,7-dihydrospiro[cyclopenta[b]pyridine-6,5′-[1,3]dioxane]] | > 6.00
Clc1cc2c(c(-c3ccnc4cc(Cl)ccc34)c1)O[C@@H](c1[nH]nc3c1CNCC3)C2 [(R)-7-chloro-4-(5-chloro-2-(4,5,6,7-tetrahydro-2H-pyrazolo[4,3-c]pyridin-3-yl)-2,3-dihydrobenzofuran-7-yl)quinoline] | 5.00 to 6.00
O=C(C1Cc2cc(Cl)cc(-c3ccnc4[nH]ccc34)c2O1)N1CCC(O)(c2ccncc2)CC1 (centres unmarked) [(5-chloro-7-(1H-pyrrolo[2,3-b]pyridin-4-yl)-2,3-dihydrobenzofuran-2-yl)(4-hydroxy-4-(pyridin-4-yl)piperidin-1-yl)methanone] | > 6.00
CCC(O)c1cc2nccc(-c3cc(Cl)cc4c3O[C@@H](c3ocnc3CN3CCNCC3)C4)c2s1 (stereo partly drawn) [1-(7-((R)-5-chloro-2-(4-(piperazin-1-ylmethyl)oxazol-5-yl)-2,3-dihydrobenzofuran-7-yl)thieno[3,2-b]pyridin-2-yl)propan-1-ol] | > 6.00
CCC(O)c1cc2nccc(-c3cc(Cl)cc4c3OC(c3onc5c3CN(C(C)C)CC5)C4)c2s1 (centres unmarked) [1-(7-(5-chloro-2-(5-isopropyl-4,5,6,7-tetrahydroisoxazolo[4,3-c]pyridin-3-yl)-2,3-dihydrobenzofuran-7-yl)thieno[3,2-b]pyridin-2-yl)propan-1-ol] | > 6.00

The next lines start with the values.

pIC50 | Compound
> 6.00 | CC[C@H](O)c1cc2ncnc(-c3cc(Cl)cc4c3O[C@@H](c3onc5c3CNCC5)C4)c2s1 [(S)-1-(4-((R)-5-chloro-2-(4,5,6,7-tetrahydroisoxazolo[4,3-c]pyridin-3-yl)-2,3-dihydrobenzofuran-7-yl)thieno[3,2-d]pyrimidin-6-yl)propan-1-ol]
> 6.00 | COC(=O)NCc1cc2nccc(-c3cc(Cl)cc4c3O[C@@H](c3onc5c3CNCC5)C4)c2s1 [Methyl (R)-((7-(5-chloro-2-(4,5,6,7-tetrahydroisoxazolo[4,3-c]pyridin-3-yl)-2,3-dihydrobenzofuran-7-yl)thieno[3,2-b]pyridin-2-yl)methyl)carbamate]
> 6.00 | CCC(O)c1cc2nccc(-c3cc(Cl)cc4c3O[C@@H](c3onc5c3CN(C)CC5)C4)c2s1 (stereo partly drawn) [drawing 1521, 1-(7-((R)-5-chloro-2-(5-methyl-4,5,6,7-tetrahydroisoxazolo[4,3-c]pyridin-3-yl)-2,3-dihydrobenzofuran-7-yl)thieno[3,2-b]pyridin-2-yl)propan-1-ol]
> 6.00 | CNC1CCN(C(=O)[C@H]2Cc3cc(Cl)cc(-c4ccnc5ccsc45)c3O2)CC1 [(R)-(5-chloro-7-(thieno[3,2-b]pyridin-7-yl)-2,3-dihydrobenzofuran-2-yl)(4-(methylamino)piperidin-1-yl)methanone]
> 6.00 | CS(=O)(=O)NCc1cc2nccc(-c3cc(Cl)cc4c3O[C@@H](c3onc5c3CNCC5)C4)c2s1 [(R)-N-((7-(5-chloro-2-(4,5,6,7-tetrahydroisoxazolo[4,3-c]pyridin-3-yl)-2,3-dihydrobenzofuran-7-yl)thieno[3,2-b]pyridin-2-yl)methyl)methanesulfonamide]
> 6.00 | CCC(O)c1cc2nccc(-c3cc(Cl)cc4c3O[C@@H](c3onc5c3CNCC5)C4)c2s1 (stereo partly drawn) [drawing 1570, 1-(7-((R)-5-chloro-2-(4,5,6,7-tetrahydroisoxazolo[4,3-c]pyridin-3-yl)-2,3-dihydrobenzofuran-7-yl)thieno[3,2-b]pyridin-2-yl)propan-1-ol]
> 6.00 | O=C([C@H]1Cc2cc(Cl)cc(-c3ccnc4cc(CN5CCCCS5(=O)=O)sc34)c2O1)N1CCNCC1 [(R)-(5-chloro-7-(2-((1,1-dioxido-1,2-thiazinan-2-yl)methyl)thieno[3,2-b]pyridin-7-yl)-2,3-dihydrobenzofuran-2-yl)(piperazin-1-yl)methanone]
